# PMC11002875, “Linking triphenylphosphonium cation to a bicyclic hydroquinone improves their antiplatelet effect via the regulation of mitochondrial function” (Redox Biology, 2024)
# Where two headings read alike, the source gives them in different places.
# Assays:
# platelets = assay: Oxygen consumption and extracellular acidification rate (Seahorse XFe24); format: cell-based, Human
# Protocol: (§1) Human platelet purification. The blood sample was obtained from voluntary donors (10 days without antiplatelet medication) who agreed to participate after signing informed consent (Scientific Ethics Committee of the University of Talca N° 04–2022). Briefly, blood anticoagulated with acid-citrate-dextrose (ACD) was obtained in a 4:1 v/v ratio. The sample was centrifuged for 12 min at 250 g to obtain platelet-rich plasma (PRP). Subsequently, the PRP was centrifuged for 8 min at 900 g to obtain the platelet pellet. The plasma supernatant was removed, and the platelets were resuspended in Tyrodes buffer without calcium plus ACD in a ratio of 5:1 v/v. The platelets were centrifuged once more for 8 min at 900 g and the pellet was resuspended in Tyrodes buffer without calcium. Finally, the platelets were counted (Mindray BC-3000 Plus hematology counter, Japan), adjusted to the desired concentration, and used within 3 h.
# Oxygen consumption and extracellular acidification rate. Oxygen consumption rate (OCR) and extracellular acidification rate (ECAR) were measured with a Seahorse XFe24 extracellular flux analyzer (Agilent, Santa Clara, CA, USA). Briefly, 100 μL of platelets washed in modified Tyrode-HEPES buffer were deposited (20–25 × 10^6 cells/well) and then centrifuged at 300 g for 10 min. Platelets were incubated with NP4 10 μM for 5 min, and then Tyrode's-HEPES buffer was removed and Seahorse medium (8.3 g/L DMEM, 1.85 g/L NaCl, 5 mM glucose, 1 mM pyruvate, 2 mM glutamine, 5 mM HEPES, pH 7.4) was added to a final volume of 600 μL [70]. OCR was measured before and after the sequential addition of 3 μg/mL collagen, 2.5 μM oligomycin, 1.4 μM FCCP, and 2 μM/2 μM antimycin A/rotenone. Non-mitochondrial OCR was subtracted from all measurements. Respiratory parameters obtained with Mito Stress Test (Supplementary Table 1) were calculated as follows: Baseline (baseline OCR), collagen (OCR after collagen addition), activation (collagen-basal), ATP-independent or proton leak (OCR resistant to oligomycin addition), ATP-linked respiration (basal-proton leak), maximum (OCR obtained after addition of FCCP), and spare (maximal-basal), coupling efficiency (OCR Basal – OCR ATP-indep)/OCR Basal). Respiratory parameters were calculated according to Refs. [66, 70, 73].
# Washed platelets [1] = assay: Mitochondrial membrane potential (TMRM); format: cell-based, Human; conditions: compounds 1, 5 and 10 μM, 20 min
# Protocol: as §1
# Mitochondrial membrane potential (ΔΨm). Washed platelets (50 × 10^6 platelets/mL) were labeled with a 100 nM tetramethylrhodamine methyl ester (TMRM) probe and incubated with compounds (1, 5 and 10 μM) for 20 min at 37 °C. The sample was acquired in the BD Facs Lyric flow cytometer (BD Biosciences, USA). Representative dot plots are available in Supplementary Figs. 12, 24, and 25. Carbonyl cyanide 4-(trifluoromethoxy) phenylhydrazone (FCCP) 1 μM was used as a control for decreasing the mitochondrial membrane potential.
# Washed platelets [2] = assay: Cellular apoptosis (externalization of phosphatidylserine, annexin V); format: cell-based, Human; conditions: 1, 2, 5, 10 and 20 μM; 15 min
# Protocol: as §1
# Cellular apoptosis (externalization of phosphatidylserine). Washed platelets (200-250 × 10^6 platelets/mL) were incubated with the NP4 compound (1, 2, 5, 10 and 20 μM) for 15 min at 37 °C. Then 15 μL of the reaction was mixed with 25 μL of annexin V binding buffer (1x) and labeled with 2 μL of annexin V FITC (BD Pharmingen, FITC Annexin V Apoptosis Detection Kit I). […]
# Washed platelets [3] = assay: Intraplatelet (cytosolic) ROS levels (DHE); format: cell-based, Human; conditions: compounds 1, 5 and 10 μM, 10 min
# Protocol: as §1
# Intraplatelet ROS levels. Washed platelets (50 × 10^6 platelets/mL) were labeled with the dihydroethidium (DHE) probe 10 μM and incubated for 20 min at 37 °C protected from light. After, compounds (1, 5, and 10 μM) were added to the platelets and incubated for 10 min at 37 °C. The sample was acquired in the BD Facs Lyric flow cytometer (BD Biosciences, USA). Representative dot plots are available in Supplementary Figs. 18 and 27. As a positive control for ROS, antimycin A 20 μM was used.
# Washed platelets [4] = assay: Platelet aggregation in washed platelets (aggregometer); format: cell-based, Human; conditions: for IC50: Homo sapiens, Platelet
# Protocol: as §1
# Platelet aggregation. Washed platelets (200-250 × 10^6 platelets/mL) were preincubated with 2 mM CaCl2 and then with the compounds under study for 5 min at 37 °C in the aggregometer (Agg RAM- Helena Biosciences). Aggregation was initiated with the agonists: collagen 2 μg/mL; convulxin 20 ng/mL; TRAP-6 (Thrombin receptor activator peptide 6) 5 μM; PMA (Phorbol myristate acetate) 100 nM or arachidonic acid 250 μg/mL. The aggregation curve was evaluated for 5 min at 37 °C in shaking at 1000 rpm.
# platelet-rich plasma = assay: Platelet aggregation in platelet-rich plasma; format: cell-based, Human; conditions: collagen 2 μg/mL; PRP
# Protocol: Platelet aggregation in platelet-rich plasma. The blood sample was obtained from voluntary donors (10 days without antiplatelet medication) who agreed to participate after signing informed consent (Scientific Ethics Committee of the University of Talca N° 04–2022). Venous blood was collected by phlebotomy into 3.2% sodium citrate tubes. The tubes were centrifuged at 250 g for 12 min to obtain PRP. After reserving the PRP, the tubes were centrifuged again at 900 g for 10 min to obtain platelet-poor plasma (PPP). For the aggregation reaction, PRP was adjusted to 200-250 × 10^6 platelets/mL with PPP [[63], [64], [65]]. Platelet counting was performed in a counter (Mindray BC-3000 Plus hematology counter, Japan). The samples were preincubated with the compounds under study for 5 min at 37 °C in the aggregometer (Agg RAM- Helena Biosciences). Aggregation was initiated with collagen 2 μg/mL and the reaction was evaluated for 5 min at 37 °C in shaking at 1000 rpm.
smiles,measurement,setting,value
"Cc1c(C)c(O)c2c(c1O)C(=O)C(CCCC[P+](c1ccccc1)(c1ccccc1)c1ccccc1)=CC2(C)C.[Br-] [NP4, (4-(5,8-dihydroxy-4,4,6,7-tetramethyl-1-oxo-1,4-dihydronaphthalen-2-yl)butyl)triphenyl phosphonium bromide]",melting point,,282 °C (dec.)
same,ATP-dep (OCRBasal – OCRATP-indep),platelets; 10 µM,"0,2 ± 0,22"
same,Activation (OCRCollagen – OCRBasal),platelets; 10 µM,"0,15 ± 0,14"
same,Coupling efficiency ((OCRBasal – OCRATP-indep)/OCRBasal),platelets; 10 µM,"0,095 ± 0,075"
same,Spare (OCRMaximum – OCRBasal),platelets; 10 µM,"1,03 ± 0,29"
same,Basal (OCR/10^6 platelets),"platelets; 10 µM, Seahorse Mito Stress Test","1,33 ± 0,69 OCR/10^6 platelets"
same,Maximum (OCR/10^6 platelets),"platelets; 10 µM, after 1.4 μM FCCP","2,28 ± 0,45 OCR/10^6 platelets"
same,Collagen (OCR/10^6 platelets),"platelets; 10 µM, after 3 μg/mL collagen","1,29 ± 0,48 OCR/10^6 platelets"
same,Non-mito (OCR/10^6 platelets),"platelets; 10 µM, after antimycin A/rotenone","0,04 ± 0,08 OCR/10^6 platelets"
same,ATP-indep (OCR/10^6 platelets),"platelets; 10 µM, proton leak, after 2.5 μM oligomycin","1,69 ± 0,47 OCR/10^6 platelets"
same,Basal extracellular acidification of the media,"platelets; non-activated platelets, NP4 10 μM, control 87.5 ± 10.6",133.9 ± 14.1 mpH/min/10^6 platelets
same,Mitochondrial membrane potential (ΔΨm),Washed platelets [1],significantly decrease
same,Apoptosis (phosphatidylserine externalization),Washed platelets [2],none of the concentrations evaluated for NP4 showed significant effects
same,Cytosolic total ROS levels,Washed platelets [3],neither NP4 nor NH4 significantly affected
same,IC50,"Washed platelets [4]; read-out: IC50 for platelet aggregation, Convulxin",4.45 ± 0.65 µM
same,IC50,"Washed platelets [4]; PMA 100 nM, washed platelets, read-out: IC50 for platelet aggregation, PMA",> 20 µM
same,IC50,"Washed platelets [4]; TRAP-6 5 μM, washed platelets, read-out: IC50 for platelet aggregation, TRAP-6",7.4 ± 0.82 µM
same,IC50,"Washed platelets [4]; arachidonic acid 250 μg/mL, washed platelets, read-out: IC50 for platelet aggregation, Arachidonic Acid",> 20 µM
same,IC50,"Washed platelets [4]; collagen 2 μg/mL, washed platelets, read-out: IC50 for platelet aggregation, Collagen",2.62 ± 0.91 µM
same,Effect on platelet aggregation vs vehicle,"Washed platelets [4]; all tested concentrations, arachidonic acid 250 μg/mL",None of the NP4 concentrations showed any effect
same,Effect on platelet aggregation vs vehicle,"Washed platelets [4]; compound 2 μM, collagen 2 μg/mL",significant effect
same,Effect on platelet aggregation vs vehicle,"Washed platelets [4]; compound 5 μM, Convulxin 20 ng/mL",had an effect
same,Effect on platelet aggregation vs vehicle,"Washed platelets [4]; compound 5 μM, TRAP-6 5 μM",had an effect
same,Effect on platelet aggregation vs vehicle,"Washed platelets [4]; compound 5 μM, collagen 2 μg/mL",had an effect
same,Effect on platelet aggregation vs vehicle,"Washed platelets [4]; compound 10 μM, Convulxin 20 ng/mL",significantly decreases
same,Effect on platelet aggregation vs vehicle,"Washed platelets [4]; compound 10 μM, PMA 100 nM",significantly decreases
same,Effect on platelet aggregation vs vehicle,"Washed platelets [4]; compound 10 μM, TRAP-6 5 μM",significantly decreases
same,Effect on platelet aggregation vs vehicle,"Washed platelets [4]; compound 10 μM, collagen 2 μg/mL",significantly decreases
same,Platelet aggregation in platelet-rich plasma,platelet-rich plasma,significant decrease
